ChEMBL document CHEMBL4507329, “Data for DCP probe BTZO-1” (2021)

Columns and labels:
[1] = target: T1, Macrophage migration inhibitory factor (Homo sapiens) (UniProt P14174); experiment: ARE-Luc Reporter Assay (Activation of ARE (antioxidant response element)-mediated cytoprotective gene expression)
T1 sequence (whole entry): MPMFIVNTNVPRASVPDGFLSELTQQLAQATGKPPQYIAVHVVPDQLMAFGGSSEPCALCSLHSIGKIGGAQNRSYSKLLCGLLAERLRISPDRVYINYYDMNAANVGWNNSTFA

[2] = target: AP2-associated protein kinase 1 (Homo sapiens) (UniProt Q2M2I8); conditions: Compound concentration 1000.0 nM
[3] = target: Activin receptor type-2A (Homo sapiens) (UniProt P27037); conditions: Compound concentration 1000.0 nM
[4] = target: Activin receptor type-2B (Homo sapiens) (UniProt Q13705); conditions: Compound concentration 1000.0 nM
[5] = target: Atypical kinase COQ8B, mitochondrial (Homo sapiens) (UniProt Q96D53); conditions: Compound concentration 1000.0 nM
[6] = target: Tyrosine-protein kinase receptor UFO (Homo sapiens) (UniProt P30530); conditions: Compound concentration 1000.0 nM
[7] = target: Cyclin-dependent kinase 13 (Homo sapiens) (UniProt Q14004); conditions: Compound concentration 1000.0 nM
[8] = target: Cyclin-dependent kinase 4 (Homo sapiens) (UniProt P11802); conditions: Compound concentration 1000.0 nM
[9] = target: Serine/threonine-protein kinase Chk1 (Homo sapiens) (UniProt O14757); conditions: Compound concentration 1000.0 nM
[10] = target: Dual specificity protein kinase CLK3 (Homo sapiens) (UniProt P49761); conditions: Compound concentration 1000.0 nM
[11] = target: Casein kinase I isoform alpha (Homo sapiens) (UniProt P48729); conditions: Compound concentration 1000.0 nM
[12] = target: Casein kinase I isoform delta (Homo sapiens) (UniProt P48730); conditions: Compound concentration 1000.0 nM
[13] = target: Megakaryocyte-associated tyrosine-protein kinase (Homo sapiens) (UniProt P42679); conditions: Compound concentration 1000.0 nM
[14] = target: Death-associated protein kinase 3 (Homo sapiens, UniProt O43293); conditions: Compound concentration 1000.0 nM
[15] = target: Serine/threonine-protein kinase DCLK3 (Homo sapiens) (UniProt Q9C098); conditions: Compound concentration 1000.0 nM
[16] = target: Dual specificity tyrosine-phosphorylation-regulated kinase 1A (Homo sapiens) (UniProt Q13627); conditions: Compound concentration 1000.0 nM
[17] = system: Epidermal growth factor receptor (Homo sapiens), P00533 [L861Q]; conditions: Compound concentration 1000.0 nM
[18] = system: Epidermal growth factor receptor (Homo sapiens), P00533 [UNDEFINED MUTATION]; conditions: Compound concentration 1000.0 nM
[19] = target: Ephrin type-B receptor 1 (Homo sapiens) (UniProt P54762); conditions: Compound concentration 1000.0 nM
[20] = target: Tyrosine-protein kinase Fes/Fps (Homo sapiens) (UniProt P07332); conditions: Compound concentration 1000.0 nM
[21] = system: Receptor-type tyrosine-protein kinase FLT3 (Homo sapiens), P36888 [K663Q]; conditions: Compound concentration 1000.0 nM
[22] = target: Tyrosine-protein kinase Fyn (Homo sapiens) (UniProt P06241); conditions: Compound concentration 1000.0 nM
[23] = target: Beta-adrenergic receptor kinase 1 (Homo sapiens) (UniProt P25098); conditions: Compound concentration 1000.0 nM
[24] = target: Homeodomain-interacting protein kinase 2 (Homo sapiens) (UniProt Q9H2X6); conditions: Compound concentration 1000.0 nM
[25] = target: Inhibitor of nuclear factor kappa-B kinase subunit alpha (Homo sapiens) (UniProt O15111); conditions: Compound concentration 1000.0 nM
[26] = target: Inhibitor of nuclear factor kappa-B kinase subunit beta (Homo sapiens) (UniProt O14920); conditions: Compound concentration 1000.0 nM
[27] = target: Serine/threonine-protein kinase LATS1 (Homo sapiens) (UniProt O95835); conditions: Compound concentration 1000.0 nM
[28] = target: Mitogen-activated protein kinase kinase kinase 4 (Homo sapiens) (UniProt Q9Y6R4); conditions: Compound concentration 1000.0 nM
[29] = target: Mitogen-activated protein kinase kinase kinase kinase 4 (Homo sapiens) (UniProt O95819); conditions: Compound concentration 1000.0 nM
[30] = target: Dual specificity mitogen-activated protein kinase kinase 5 (Homo sapiens) (UniProt Q13163); conditions: Compound concentration 1000.0 nM
[31] = target: Mitogen-activated protein kinase kinase kinase 11 (Homo sapiens) (UniProt Q16584); conditions: Compound concentration 1000.0 nM
[32] = target: Cyclin-dependent kinase 2 homolog (Plasmodium falciparum (isolate 3D7)) (UniProt P61075); conditions: Compound concentration 1000.0 nM
[33] = target: Phosphatidylinositol 5-phosphate 4-kinase type-2 gamma (Homo sapiens) (UniProt Q8TBX8); conditions: Compound concentration 1000.0 nM
[34] = target: Serine/threonine-protein kinase RIO1 (Homo sapiens) (UniProt Q9BRS2); conditions: Compound concentration 1000.0 nM
[35] = target: Serine/threonine-protein kinase RIO2 (Homo sapiens) (UniProt Q9BVS4); conditions: Compound concentration 1000.0 nM
[36] = target: Proto-oncogene tyrosine-protein kinase ROS (Homo sapiens) (UniProt P08922); conditions: Compound concentration 1000.0 nM
[37] = target: Serine/threonine-protein kinase SIK2 (Homo sapiens) (UniProt Q9H0K1); conditions: Compound concentration 1000.0 nM
[38] = target: Proto-oncogene tyrosine-protein kinase Src (Homo sapiens) (UniProt P12931); conditions: Compound concentration 1000.0 nM
[39] = target: SRSF protein kinase 2 (Homo sapiens) (UniProt P78362); conditions: Compound concentration 1000.0 nM
[40] = target: Serine/threonine-protein kinase 32B (Homo sapiens) (UniProt Q9NY57); conditions: Compound concentration 1000.0 nM
[41] = target: Serine/threonine-protein kinase 25 (Homo sapiens) (UniProt O00506); conditions: Compound concentration 1000.0 nM
[42] = target: Sodium-dependent noradrenaline transporter (Homo sapiens) (UniProt P23975); conditions: Compound concentration 10.0 uM
[43] = organism: Rattus norvegicus; conditions: Compound concentration 10.0 uM

Cyclin-dependent kinase 2 homolog (Plasmodium falciparum (isolate 3D7)), sequence (P61075 whole entry): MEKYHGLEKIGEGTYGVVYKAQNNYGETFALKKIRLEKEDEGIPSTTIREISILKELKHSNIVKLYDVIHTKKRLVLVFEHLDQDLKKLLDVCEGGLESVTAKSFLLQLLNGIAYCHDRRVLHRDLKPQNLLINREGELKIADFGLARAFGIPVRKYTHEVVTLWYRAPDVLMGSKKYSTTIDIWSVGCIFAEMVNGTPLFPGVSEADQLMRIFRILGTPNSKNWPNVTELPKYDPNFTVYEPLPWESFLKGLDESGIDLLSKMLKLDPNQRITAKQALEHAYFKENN
Proto-oncogene tyrosine-protein kinase Src (Homo sapiens), sequence (P12931 2-536 limits assumed): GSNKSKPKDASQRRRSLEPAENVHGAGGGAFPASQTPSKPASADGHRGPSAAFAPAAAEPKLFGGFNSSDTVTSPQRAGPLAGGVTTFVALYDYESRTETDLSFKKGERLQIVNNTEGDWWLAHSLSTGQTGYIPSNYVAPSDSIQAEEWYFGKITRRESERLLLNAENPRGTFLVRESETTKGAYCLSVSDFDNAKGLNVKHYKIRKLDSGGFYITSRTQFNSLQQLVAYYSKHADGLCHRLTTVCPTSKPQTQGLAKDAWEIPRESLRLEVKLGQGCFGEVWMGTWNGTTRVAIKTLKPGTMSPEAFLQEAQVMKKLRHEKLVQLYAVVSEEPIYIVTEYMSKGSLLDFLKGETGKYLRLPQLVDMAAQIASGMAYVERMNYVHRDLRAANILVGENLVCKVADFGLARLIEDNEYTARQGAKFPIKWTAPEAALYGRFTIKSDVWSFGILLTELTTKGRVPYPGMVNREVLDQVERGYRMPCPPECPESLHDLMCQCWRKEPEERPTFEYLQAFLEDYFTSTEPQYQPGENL
Dual specificity mitogen-activated protein kinase kinase 5 (Homo sapiens), sequence (Q13163 whole entry): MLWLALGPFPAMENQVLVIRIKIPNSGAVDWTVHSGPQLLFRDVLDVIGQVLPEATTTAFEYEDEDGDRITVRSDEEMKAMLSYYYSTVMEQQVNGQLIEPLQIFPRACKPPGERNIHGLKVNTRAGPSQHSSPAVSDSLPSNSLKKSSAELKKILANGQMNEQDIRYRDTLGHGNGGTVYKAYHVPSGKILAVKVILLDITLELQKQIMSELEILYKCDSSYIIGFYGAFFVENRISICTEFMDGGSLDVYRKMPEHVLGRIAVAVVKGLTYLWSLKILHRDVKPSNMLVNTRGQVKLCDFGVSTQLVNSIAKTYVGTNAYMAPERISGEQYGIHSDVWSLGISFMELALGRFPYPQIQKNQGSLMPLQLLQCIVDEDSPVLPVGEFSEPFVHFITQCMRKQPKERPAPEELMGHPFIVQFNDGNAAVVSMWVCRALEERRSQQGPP
Serine/threonine-protein kinase DCLK3 (Homo sapiens), sequence (Q9C098 whole entry): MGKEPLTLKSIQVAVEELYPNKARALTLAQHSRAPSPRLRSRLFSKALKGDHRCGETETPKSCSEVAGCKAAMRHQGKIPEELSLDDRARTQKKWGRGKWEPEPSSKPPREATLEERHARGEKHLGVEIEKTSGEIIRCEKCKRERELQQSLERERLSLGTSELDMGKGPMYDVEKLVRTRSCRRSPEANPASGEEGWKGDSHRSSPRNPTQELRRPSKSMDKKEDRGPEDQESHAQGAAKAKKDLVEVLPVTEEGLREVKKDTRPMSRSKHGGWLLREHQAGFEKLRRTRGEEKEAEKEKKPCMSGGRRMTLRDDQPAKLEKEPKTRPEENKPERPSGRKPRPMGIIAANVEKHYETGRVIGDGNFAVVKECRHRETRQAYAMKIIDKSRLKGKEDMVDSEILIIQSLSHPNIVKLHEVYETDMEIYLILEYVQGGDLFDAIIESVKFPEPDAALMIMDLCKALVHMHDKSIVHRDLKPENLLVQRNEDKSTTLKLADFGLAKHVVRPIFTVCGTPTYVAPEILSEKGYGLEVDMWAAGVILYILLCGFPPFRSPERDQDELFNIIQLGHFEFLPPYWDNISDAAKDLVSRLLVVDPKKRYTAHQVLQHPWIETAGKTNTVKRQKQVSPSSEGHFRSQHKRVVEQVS
Homeodomain-interacting protein kinase 2 (Homo sapiens), sequence (Q9H2X6 whole entry, looked up): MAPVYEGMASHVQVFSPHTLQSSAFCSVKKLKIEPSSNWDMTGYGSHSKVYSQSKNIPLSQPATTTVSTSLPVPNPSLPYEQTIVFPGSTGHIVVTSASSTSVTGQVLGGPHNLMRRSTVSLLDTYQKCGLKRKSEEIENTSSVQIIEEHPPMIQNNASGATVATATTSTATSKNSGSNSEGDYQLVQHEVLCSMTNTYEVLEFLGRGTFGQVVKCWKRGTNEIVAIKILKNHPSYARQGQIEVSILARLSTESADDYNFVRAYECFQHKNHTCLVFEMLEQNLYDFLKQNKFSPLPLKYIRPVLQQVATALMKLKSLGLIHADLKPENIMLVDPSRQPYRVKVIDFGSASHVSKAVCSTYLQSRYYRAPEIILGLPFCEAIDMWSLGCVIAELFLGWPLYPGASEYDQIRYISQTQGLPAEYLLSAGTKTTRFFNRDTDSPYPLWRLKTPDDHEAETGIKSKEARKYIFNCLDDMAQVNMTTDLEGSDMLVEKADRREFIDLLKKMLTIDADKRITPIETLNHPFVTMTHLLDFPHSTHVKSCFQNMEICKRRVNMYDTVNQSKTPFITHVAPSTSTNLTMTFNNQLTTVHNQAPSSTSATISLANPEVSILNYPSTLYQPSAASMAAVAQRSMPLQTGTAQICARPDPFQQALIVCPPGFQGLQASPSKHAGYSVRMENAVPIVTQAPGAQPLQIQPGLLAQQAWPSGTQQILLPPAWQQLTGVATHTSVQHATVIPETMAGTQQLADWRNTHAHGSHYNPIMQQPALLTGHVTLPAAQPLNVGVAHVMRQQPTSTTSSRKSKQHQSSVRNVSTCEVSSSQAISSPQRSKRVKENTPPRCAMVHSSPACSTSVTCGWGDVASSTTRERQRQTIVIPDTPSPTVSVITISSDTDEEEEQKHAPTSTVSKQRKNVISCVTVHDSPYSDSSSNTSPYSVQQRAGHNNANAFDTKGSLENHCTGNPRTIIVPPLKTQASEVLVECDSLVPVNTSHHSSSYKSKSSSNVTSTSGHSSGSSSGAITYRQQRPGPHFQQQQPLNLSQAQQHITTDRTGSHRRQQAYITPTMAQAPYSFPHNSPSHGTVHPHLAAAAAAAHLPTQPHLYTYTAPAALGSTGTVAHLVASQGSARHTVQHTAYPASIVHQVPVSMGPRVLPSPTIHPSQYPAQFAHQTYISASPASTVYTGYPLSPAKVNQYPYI
Megakaryocyte-associated tyrosine-protein kinase (Homo sapiens), sequence (P42679 whole entry): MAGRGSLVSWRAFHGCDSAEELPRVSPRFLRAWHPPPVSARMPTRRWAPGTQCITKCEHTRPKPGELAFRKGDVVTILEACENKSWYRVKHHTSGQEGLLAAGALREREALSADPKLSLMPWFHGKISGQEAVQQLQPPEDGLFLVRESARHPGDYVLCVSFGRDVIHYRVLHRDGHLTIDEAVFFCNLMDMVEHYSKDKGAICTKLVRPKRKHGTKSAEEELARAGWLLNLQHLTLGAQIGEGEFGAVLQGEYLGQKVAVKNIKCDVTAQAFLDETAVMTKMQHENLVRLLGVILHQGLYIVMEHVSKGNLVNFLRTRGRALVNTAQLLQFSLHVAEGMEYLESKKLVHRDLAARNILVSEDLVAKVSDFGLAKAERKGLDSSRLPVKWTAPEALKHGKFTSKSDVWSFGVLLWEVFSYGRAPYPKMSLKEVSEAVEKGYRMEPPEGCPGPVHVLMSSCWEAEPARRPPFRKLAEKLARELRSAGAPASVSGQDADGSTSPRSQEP
Death-associated protein kinase 3, sequence (O43293 whole entry, looked up): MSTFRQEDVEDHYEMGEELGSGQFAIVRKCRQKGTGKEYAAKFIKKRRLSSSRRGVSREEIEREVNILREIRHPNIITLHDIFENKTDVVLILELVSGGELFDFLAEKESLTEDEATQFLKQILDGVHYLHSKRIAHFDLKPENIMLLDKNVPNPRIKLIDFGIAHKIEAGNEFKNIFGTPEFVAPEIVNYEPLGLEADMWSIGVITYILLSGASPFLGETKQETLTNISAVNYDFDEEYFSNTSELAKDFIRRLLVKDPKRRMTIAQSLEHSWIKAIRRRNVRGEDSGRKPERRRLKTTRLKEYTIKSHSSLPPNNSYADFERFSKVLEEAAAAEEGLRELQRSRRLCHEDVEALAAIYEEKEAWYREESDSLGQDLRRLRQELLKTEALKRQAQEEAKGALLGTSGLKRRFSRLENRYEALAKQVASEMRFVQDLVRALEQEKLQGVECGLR
Inhibitor of nuclear factor kappa-B kinase subunit beta (Homo sapiens), sequence (O14920 whole entry): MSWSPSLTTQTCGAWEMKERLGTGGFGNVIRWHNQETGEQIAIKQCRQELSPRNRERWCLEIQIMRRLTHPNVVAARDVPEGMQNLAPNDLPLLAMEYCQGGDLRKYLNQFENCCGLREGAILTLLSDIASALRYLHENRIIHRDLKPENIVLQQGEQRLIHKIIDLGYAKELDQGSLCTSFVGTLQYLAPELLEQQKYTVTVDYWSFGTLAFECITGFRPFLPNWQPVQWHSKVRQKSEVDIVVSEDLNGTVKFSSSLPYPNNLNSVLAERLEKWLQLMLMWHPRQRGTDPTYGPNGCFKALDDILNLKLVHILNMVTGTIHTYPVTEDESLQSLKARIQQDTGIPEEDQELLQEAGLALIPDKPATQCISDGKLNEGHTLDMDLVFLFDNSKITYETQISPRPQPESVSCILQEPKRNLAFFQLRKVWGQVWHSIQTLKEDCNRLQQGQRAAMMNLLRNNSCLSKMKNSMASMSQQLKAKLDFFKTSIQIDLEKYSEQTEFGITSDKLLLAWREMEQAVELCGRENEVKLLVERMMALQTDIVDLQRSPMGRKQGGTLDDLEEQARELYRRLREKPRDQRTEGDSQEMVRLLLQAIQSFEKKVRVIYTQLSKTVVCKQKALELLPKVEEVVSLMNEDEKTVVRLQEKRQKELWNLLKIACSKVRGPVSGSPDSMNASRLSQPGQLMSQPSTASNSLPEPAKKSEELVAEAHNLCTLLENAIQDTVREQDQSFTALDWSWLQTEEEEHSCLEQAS

O=c1nc(-c2ccccn2)sc2ccccc12 [BTZO-1]
active: MEC2.0 [1] 820 nM
inactive: residual activity [2] 100% | residual activity [3] 91% | residual activity [4] 100% | residual activity [5] 60% | residual activity [6] 100% | residual activity [7] 75% | residual activity [8] 100% | residual activity [9] 85% | residual activity [10] 96% | residual activity [11] 76% | residual activity [12] 81% | residual activity [13] 100% | residual activity [14] 91% | residual activity [15] 97% | residual activity [16] 91% | residual activity [17] 68% | residual activity [18] 84% | residual activity [19] 88% | residual activity [20] 100% | residual activity [21] 100% | residual activity [22] 100% | residual activity [23] 65% | residual activity [24] 76% | residual activity [25] 100% | residual activity [26] 100% | residual activity [27] 95% | residual activity [28] 92% | residual activity [29] 100% | residual activity [30] 79% | residual activity [31] 100% | residual activity [32] 100% | residual activity [33] 98% | residual activity [34] 85% | residual activity [35] 94% | residual activity [36] 100% | residual activity [37] 86% | residual activity [38] 92% | residual activity [39] 100% | residual activity [40] 100% | residual activity [41] 100% | inhibition [42] -0.363% | inhibition [43] 9.91%

O=C1NC(c2ccccn2)Sc2ccccc21 (configuration not stated) [BTZO-4]
inactive: MEC1.5 [1] > 1 µM | MEC2.0 [1] > 10000 nM | residual activity [2] 100% | residual activity [3] 100% | residual activity [4] 100% | residual activity [5] 67% | residual activity [6] 92% | residual activity [7] 90% | residual activity [8] 91% | residual activity [9] 88% | residual activity [10] 97% | residual activity [11] 72% | residual activity [12] 74% | residual activity [13] 100% | residual activity [15] 69% | residual activity [16] 100% | residual activity [17] 77% | residual activity [18] 92% | residual activity [19] 90% | residual activity [20] 94% | residual activity [21] 82% | residual activity [22] 100% | residual activity [23] 58% | residual activity [24] 80% | residual activity [25] 100% | residual activity [26] 100% | residual activity [27] 98% | residual activity [28] 100% | residual activity [29] 100% | residual activity [30] 87% | residual activity [31] 94% | residual activity [32] 100% | residual activity [33] 100% | residual activity [34] 80% | residual activity [35] 83% | residual activity [36] 95% | residual activity [37] 96% | residual activity [38] 85% | residual activity [39] 100% | residual activity [40] 100% | residual activity [41] 78% | inhibition [42] 28.7% | inhibition [43] 22.6%
active: residual activity [14] 0%
